Legend:
[1] = target: T1, alcohol dehydrogenase from Thermoanaerobium brockii (TBADH) (Thermoanaerobacter brockii, UniProt P14941); test: TBADH relative velocity (enantioselectivity) and Michaelis-Menten kinetics with 1,2-propanediol; type: biochemical; conditions: for Km / Vmax: TBADH; for Km: 2.2 mM NADP+, pH 8.8, 25° C.; for Vmax: 0.113 U
T1 construct: purchased
T1 sequence (P14941 1-352): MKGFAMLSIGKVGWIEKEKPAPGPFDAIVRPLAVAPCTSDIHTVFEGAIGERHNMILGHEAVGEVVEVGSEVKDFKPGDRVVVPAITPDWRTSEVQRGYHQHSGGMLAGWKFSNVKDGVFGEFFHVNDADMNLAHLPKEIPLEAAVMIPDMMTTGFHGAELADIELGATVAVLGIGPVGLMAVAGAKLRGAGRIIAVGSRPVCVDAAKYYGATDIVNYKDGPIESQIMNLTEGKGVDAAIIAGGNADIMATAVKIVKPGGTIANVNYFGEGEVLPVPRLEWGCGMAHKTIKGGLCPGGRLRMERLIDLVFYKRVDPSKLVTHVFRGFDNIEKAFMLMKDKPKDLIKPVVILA
Method: 2. TBADH: The enantioselectivity of […] was estimated from the ratios of the initial velocities of (R)— vs. (S)-1,2-propanediol at fixed concentrations between 3.0 and 80 mM at 25° C. Each velocity measurement was performed in triplicate. The assay cuvette contained the following: 2.2 mM NADP+ (10 μL from a 220 mM stock), 0.113 U of TBADH, and various concentrations of either (R) or (S)-enantiomer of 1,2-propanediol. In all cases, the final volume was adjusted to 1 mL using 50 mM sodium pyrophosphate buffer, pH 8.8.
(§1) Indeed, this was confirmed by the determination of Km's for each antipode of 1,2-propanediol for each enzyme. For each antipodal diol, the same data as were used to survey dehydrogenase enantioselectivity, as a function of diol concentration, were plotted in Michaelis-Menten fashion, as v0 vs. [S] (FIGS. 3 and 4). For each dehydrogenase, the data curve for (R)-1,2-propanediol is shown by -▪-, and those for the (S)-enantiomer by -●-. In all four cases, the data were processed by […], least squares fitting to a hyperbolic function. The resulting curve fits and best fit hyperbolic equations are presented above.

[2] = target: T2, alcohol dehydrogenase from horse liver (HLADH) (Equus caballus, UniProt P00327); test: HLADH relative velocity (enantioselectivity) and Michaelis-Menten kinetics with 1,2-propanediol; type: biochemical; conditions: for Km / Vmax: HLADH; for Km: 7.2 mM NAD+, pH 8.8, 25° C.; for Vmax: 0.049 U
T2 construct: purchased; host or cells: equine liver
T2 sequence (P00327 whole entry): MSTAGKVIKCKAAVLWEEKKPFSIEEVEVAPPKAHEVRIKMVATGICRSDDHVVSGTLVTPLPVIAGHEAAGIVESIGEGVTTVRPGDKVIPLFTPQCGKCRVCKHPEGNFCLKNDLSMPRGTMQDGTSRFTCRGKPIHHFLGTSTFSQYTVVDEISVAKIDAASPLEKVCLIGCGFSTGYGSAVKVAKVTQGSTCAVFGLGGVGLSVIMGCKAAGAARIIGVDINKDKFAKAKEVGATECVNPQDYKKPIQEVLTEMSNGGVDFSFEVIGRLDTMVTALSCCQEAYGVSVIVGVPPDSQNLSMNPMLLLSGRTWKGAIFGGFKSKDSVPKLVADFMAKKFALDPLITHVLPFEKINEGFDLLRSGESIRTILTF
Method: 1. HLADH: The enantioselectivity of […] was estimated from the ratios of the initial velocities of (R)— vs. (S)-1,2-propanediol at fixed concentrations between 4.0 and 100 mM at 25° C. Each velocity measurement was made in duplicate. The assay cuvette contained the following: 7.2 mM NAD+ (33 μL from a 220 mM stock), 0.049 U of HLADH, and various concentrations of either the (R)— or (S)-enantiomer of 1,2-propanediol. In all cases, the final volume was adjusted to 1 mL using 50 mM sodium pyrophosphate buffer, pH 8.8.
as §1

[3] = HKR of (±)-propylene oxide under standard neat 'Jacobsen conditions' (NMR conversion, chiral HPLC ee); conditions: for NMR conv. (time): 3 h; for NMR conv. (time) / % ee (HPLC): loading 0.25 mol %; for % ee of the 1,2-propanediol product, as observed by chiral HPLC (lower number): neat propylene oxide, 0.55 equiv. H2O, 0.25 mol % catalyst, 3 h reaction time
Method: Salens in the fully synthetic, 42 member focused library that led to catalysts with appreciable activity, as indicated by double cuvette-ISES, were also evaluated ‘outside of the cuvette,’ under conditions more typically employed in HKR reactions. Specifically, these Co(III)-salen catalysts were evaluated in the HKR of (±)-propylene oxide, under neat conditions, similar to those described by Jacobsen and coworkers. Reactions were arbitrarily stopped after 3 hours, to obtain the enantiopurity of the 1,2-propanediol product at relatively early reaction times, for comparison with ISES predictions.
A typical procedure follows: To the Co(III)-salen catalyst derived from 7e (5.4 mg, 5.4 μmol, 0.25 mol %) and (±)-propylene oxide (125 mg, 2.15 mmol) at 0° C., was added water (21 μL, 1.18 mmol, 0.55 equiv.). The reaction mixture was securely capped, and allowed to warm to room temperature and stirred, most commonly for a total of 3 hours. Percent conversion at 3 hours was evaluated by 1H NMR of an aliquot (cooled to 0° C. for the transfer), in CDCl3. In most of these cases, the conversion was low enough after 3 hours, that the unreacted epoxide (bp 32° C.) was of relatively low ee, and was therefore removed by evaporation under aspirator vacuum. When the conversion was less than 5% by NMR after 3 hours, reactions were continued for longer times.
Upon termination of the reaction, the diol product was isolated by Kugelrohr distillation (˜120° C.-oven temp; 0.1 torr). To determine ee, the isolated diol was derivatized using p-bromobenzoyl imidazole (2.2 equiv.) in THF in the presence of NaH (4 equiv.) at room temperature for 5 min. The bis(p-bromobenzoate) esters obtained following sequential washes with 1 N HCl and saturated sodium bicarbonate, were of sufficient purity to be used directly for chiral HPLC analysis (Chiralcel OD, 99% […]). [drawing 23] [drawing 24] [drawing 25] [drawing 26] [drawing 27]

[4] = Double cuvette-ISES (in situ enzymatic screening) of Co(III)-salen mediated HKR of (±)-propylene oxide; conditions: bilayer of pH 8.6 buffer over 7.2 M epoxide in CHCl3, 0.25 mol % catalyst, 15-35 min; + = (S), − = (R)
Method: Aqueous reporting layers. containing TBADH/NADP+ (cuvette 1) and HLADH/NAD+ (cuvette 2), respectively, are then added. The increase in absorbance at 340 nm can be followed for several such sets in parallel by UV-vis spectrophotometry. The kinetic data are then used to make the double-cuvette ISES predictions.
A general procedure for double cuvette-ISES to estimate both enantioselectivities and relative rates for an array of catalysts being screened in parallel is presented below. The hydrolytic kinetic resolution (HKR) of (±) propylene oxide was chosen as model reaction.
Typically, quartz cuvettes with one cm light paths and with nominal one mL volumes were used. For each catalyst, a two cuvette screen was performed, with cuvette A containing HLADH, as (S)-propanediol-selective reporting enzyme, and cuvette B containing TBADH, as a (R)-propanediol-selective reporting enzyme. For each cuvette, the final volume was 800 μL (300 μL of organic layer; 500 μL of aqueous layer).
Both cuvettes A and B had the following composition: 150 μL (2.15 mmol) of (±)-propylene oxide (7.2 M in organic layer), 150 μL of CHCl3 and 0.25 mol % Co(III)-salen catalyst. The total organic layer volume was maintained as 300 μL in all catalyst screens.
(i) Cuvette A: 0.35 U HLADH (17.6 μL from a stock solution (0.02U/μL)), 7.2 mM β-NAD+(16.5 μL from a 220 mM stock) and 465.8 μL of 50 mM sodium pyrophosphate buffer, pH 8.8. The final pH was 8.6.
(ii) Cuvette B: 0.35 U TBADH (15.8 μL from a stock solution (0.022U/μL)) of, 2.2 mM β-NADP+ (5 μL from a 220 mM stock) and 479.5 μL of 50 mM sodium pyrophosphate buffer, pH 8.8. The final pH was 8.6. The total volume of the aqueous layer was maintained as 500 μL in both cuvettes in all ISES experiments.
C. Step by Step Protocol: A catalyst stock solution (22 μmol of catalyst in 620 μL CHCl3) was made up in a 1.5 ml microcentrifuge tube, and stored on ice, along with a stock of (±)-propylene oxide, in a separate tube. The organic layers were prepared by briefly vortexing 150 μL (5.4 μmol, 0.25 mol %) of the catalyst stock in CHCl3 with 150 μL (2.15 mmol) of (±)-propylene oxide in iced microcentrifuge tubes. These were loaded into 1 mL quartz cuvettes using precooled (refrigerator), disposable 1 mL syringes. The aqueous layers were then layered on top of the organic layers, by syringe, down the walls of the cuvette.

[5] = [total 1,2-propanediol] in aqueous ISES layer by 1H NMR; conditions: for [diol] (mM) @ 15 min: aqueous ISES layer, 1H NMR, t = 15 min; for Norm.: normalized to the catalyst derived from salen 3b (rate 1.0)
Method: The concentration of 1,2-propanediol in the aqueous layer was estimated under typical ISES conditions using 1H NMR spectroscopy. The bilayer was prepared as usual for double cuvette-ISES (Section V), but for the substitution of D2O for H2O in the buffer, and the elimination of the dehydrogenase enzymes. After 15 min, the aqueous layer (300 μL of 500 μL total) was withdrawn and mixed with a fresh solution of imidazole of known concentration (also 300 μL in D2O), as an internal concentration standard. Accumulation of the 1H NMR spectrum, followed by integration and quantitation, provided an experimental measure of [total diol] in the aqueous reporting layer at t=15 minutes for the catalyst under investigation. The observed diol concentrations for ten catalysts examined in this way are collected in Table S6, below. These have been normalized to the value for the catalyst derived from salen 3b (arbitrarily assigned a rate of 1.0).

[6] = reaction stopped at the time given (mostly 3 h), + = (S), − = (R)

CC(O)CO (stereo not drawn) [1,2-Propanediol]
vR/vS of TBADH ([1]; 1,2-propanediol conc. 3 mM, 25° C.): 10.8
vR/vS of TBADH ([1]; 1,2-propanediol conc. 6 mM): 8.9
vR/vS of TBADH ([1]; 1,2-propanediol conc. 10 mM): 9.9
vR/vS of TBADH ([1]; 1,2-propanediol conc. 20 mM): 10.6
vR/vS of TBADH ([1]; 1,2-propanediol conc. 30 mM): 9.1
vR/vS of TBADH ([1]; 1,2-propanediol conc. 40 mM): 8.4
vR/vS of TBADH ([1]; 1,2-propanediol conc. 50 mM): 9.0
vR/vS of TBADH ([1]; 1,2-propanediol conc. 60 mM): 9.1
vR/vS of TBADH ([1]; 1,2-propanediol conc. 80 mM): 8.6
vS/vR of HLADH ([2]; 1,2-propanediol conc. 4 mM, 25° C.): 4.0
vS/vR of HLADH ([2]; 1,2-propanediol conc. 8 mM): 3.6
vS/vR of HLADH ([2]; 1,2-propanediol conc. 12 mM): 2.8
vS/vR of HLADH ([2]; 1,2-propanediol conc. 16 mM): 2.4
vS/vR of HLADH ([2]; 1,2-propanediol conc. 20 mM): 2.7
vS/vR of HLADH ([2]; 1,2-propanediol conc. 30 mM): 2.8
vS/vR of HLADH ([2]; 1,2-propanediol conc. 40 mM): 3.0
vS/vR of HLADH ([2]; 1,2-propanediol conc. 50 mM): 2.7
vS/vR of HLADH ([2]; 1,2-propanediol conc. 100 mM): 2.6

C[C@@H](O)CO [(R)-1,2-propanediol]
enantiomeric preference of TBADH [1]: significant preference
Km [1]: 17 ± 2 mM
Vmax [1]: 487±18 mAbs min−1
Km [2]: 25 ± 2 mM
Vmax [2]: 355±9 mAbs min−1

C[C@H](O)CO [(S)-1,2-propanediol]
Km [1]: 23 ± 4 mM
Vmax [1]: 60±4 mAbs min−1
Km [2]: 16 ± 1 mM
Vmax [2]: 819±20 mAbs min−1

CC(C)(C)c1cc(C=NC[C@H](Cc2ccc3ccccc3c2)N=Cc2cc(C(C)(C)C)cc(C(C)(C)C)c2O)c(O)c(C(C)(C)C)c1 [Salen 5a, N,N′-Bis(3′,5′-di-tert-butylsalicylidene)-(1S)-(β-naphthylmethyl)-1,2-ethylenediamine]
NMR conv. (time) [3]: 36 (3 h) %
% ee (HPLC) [3, 6]: +66 (S) % ee
% ee of the 1,2-propanediol product, as observed by chiral HPLC (lower number) ([3]; + = (S), − = (R)): +66 % ee
% ee of the 1,2-propanediol product, as predicted by double-cuvette ISES (upper number) [4]: +87 % ee
[diol] (mM) @ 15 min [5]: 52.5 mM
Norm. [5]: 0.55

CC(C)(C)c1cccc(C=NC[C@H](Cc2ccc3ccccc3c2)N=Cc2cccc(C(C)(C)C)c2O)c1O [Salen 5b, N,N′-Bis(3′-tert-butylsalicylidene)-(1S)-(β-naphthylmethyl)-1,2-ethylenediamine]
NMR conv. (time) [3]: 45 (3 h) %
% ee (HPLC) [3, 6]: +68 (S) % ee
% ee of the 1,2-propanediol product, as observed by chiral HPLC (lower number) ([3]; + = (S), − = (R)): +68 % ee
% ee of the 1,2-propanediol product, as predicted by double-cuvette ISES (upper number) [4]: +65 % ee
[diol] (mM) @ 15 min [5]: 75.5 mM
Norm. [5]: 0.79

Oc1c(C=NC[C@H](Cc2ccc3ccccc3c2)N=Cc2ccc3ccccc3c2O)ccc2ccccc12 [Salen 5d, N,N′-Bis(1′-hydroxy-2′-naphthylidene)-(1S)-(β-naphthylmethyl)-1,2-ethylenediamine]
NMR conv. (time) [3]: 10 (3 h) %
% ee (HPLC) [3, 6]: +11 (S) % ee
% ee of the 1,2-propanediol product, as observed by chiral HPLC (lower number) ([3]; + = (S), − = (R)): +11 % ee
% ee of the 1,2-propanediol product, as predicted by double-cuvette ISES (upper number) [4]: +9 % ee
[diol] (mM) @ 15 min [5]: 54 mM
Norm. [5]: 0.56

N,N′-Bis(1′-hydroxy-2′-naphthylidene)-[1R-(1α,2α,5α)]-2-amino-7,7-dimethyl-2-bicyclo[3.3.1]heptane-ethanamine [Salen 1d]
% ee (HPLC) ([3]; @1 h): +81@1 h, % ee
% ee (HPLC) ([3]; @3 h): +67@3 h (S) % ee
% ee of the 1,2-propanediol product, as observed by chiral HPLC (lower number) ([3]; + = (S), − = (R)): +81 % ee
% ee of the 1,2-propanediol product, as predicted by double-cuvette ISES (upper number) [4]: +75 % ee
[diol] (mM) @ 15 min [5]: 91 mM
Norm. [5]: 0.95

Source: patent publication US20060263895A1, “Method for monitoring the stereoselectivity and relative rate of organic chemical reactions” (priority 2005, published 2006)
